# According to ChEMBL document CHEMBL3217511, “Structure-activity evaluation of new uracil-based non-nucleoside inhibitors of HIV reverse transcriptase” (Medchemcomm, 2013):
# Columns and labels:
# [1] = target: Human immunodeficiency virus type 1 reverse transcriptase (Human immunodeficiency virus 1, UniProt Q72547); experiment: Inhibition of wild-type HIV1 Reverse transcriptase p51/p66 after 30 mins using alpha-[32P]dATP by liquid scintillation counting
# [2] = system: Human immunodeficiency virus type 1 reverse transcriptase (Human immunodeficiency virus 1), Q72547 [K103N,Y181C]; experiment: Inhibition of HIV1 Reverse transcriptase p51/p66 K103N/Y181C mutant at 10 uM after 30 mins using alpha-[32P]dATP by liquid scintillation counting
# [3] = system: Human immunodeficiency virus 1; experiment: Inhibition of HIV1 Reverse transcriptase p51/p66 G190A mutant at 10 uM after 30 mins using alpha-[32P]dATP by liquid scintillation counting
# [4] = system: Human immunodeficiency virus type 1 reverse transcriptase (Human immunodeficiency virus 1), Q72547 [Y181C]; experiment: Inhibition of HIV1 Reverse transcriptase p51/p66 Y181C mutant at 10 uM after 30 mins using alpha-[32P]dATP by liquid scintillation counting
# [5] = system: Human immunodeficiency virus type 1 reverse transcriptase (Human immunodeficiency virus 1), Q72547 [V106A]; experiment: Inhibition of HIV1 Reverse transcriptase p51/p66 V106A mutant at 10 uM after 30 mins using alpha-[32P]dATP by liquid scintillation counting
# [6] = system: Human immunodeficiency virus type 1 reverse transcriptase (Human immunodeficiency virus 1), Q72547 [K103N]; experiment: Inhibition of HIV1 Reverse transcriptase p51/p66 K103N mutant at 10 uM after 30 mins using alpha-[32P]dATP by liquid scintillation counting
# [7] = system: Human immunodeficiency virus type 1 reverse transcriptase (Human immunodeficiency virus 1), Q72547 [L100I]; experiment: Inhibition of HIV1 Reverse transcriptase p51/p66 L100I mutant at 10 uM after 30 mins using alpha-[32P]dATP by liquid scintillation counting
# [8] = target: Human immunodeficiency virus type 1 reverse transcriptase (Human immunodeficiency virus 1) (UniProt Q72547); experiment: Inhibition of wild-type HIV1 Reverse transcriptase p51/p66 at 10 uM after 30 mins using alpha-[32P]dATP by liquid scintillation counting
# [9] = Inhibition of HIV1 Reverse transcriptase p51/p66 G190A mutant after 30 mins using alpha-[32P]dATP by liquid scintillation counting; set-up: species or system Human immunodeficiency virus 1
# [10] = system: Human immunodeficiency virus 1; experiment: Selectivity ratio of IC50 for HIV1 Reverse transcriptase p51/p66 K103N mutant to IC50 for wild-type HIV1 Reverse transcriptase p51/p66
# [11] = system: Human immunodeficiency virus 1; experiment: Selectivity ratio of IC50 for HIV1 Reverse transcriptase p51/p66 L100I mutant to IC50 for wild-type HIV1 Reverse transcriptase p51/p66
# [12] = target: Human immunodeficiency virus type 1 reverse transcriptase (Human immunodeficiency virus 1, UniProt Q72547, K103N/Y181C); experiment: Inhibition of HIV1 Reverse transcriptase p51/p66 K103N/Y181C mutant after 30 mins using alpha-[32P]dATP by liquid scintillation counting
# [13] = target: Human immunodeficiency virus type 1 reverse transcriptase (Human immunodeficiency virus 1, UniProt Q72547, Y181C); experiment: Inhibition of HIV1 Reverse transcriptase p51/p66 Y181C mutant after 30 mins using alpha-[32P]dATP by liquid scintillation counting
# [14] = target: Human immunodeficiency virus type 1 reverse transcriptase (Human immunodeficiency virus 1, UniProt Q72547, V106A); experiment: Inhibition of HIV1 Reverse transcriptase p51/p66 V106A mutant after 30 mins using alpha-[32P]dATP by liquid scintillation counting
# [15] = target: Human immunodeficiency virus type 1 reverse transcriptase (Human immunodeficiency virus 1, UniProt Q72547, K103N); experiment: Inhibition of HIV1 Reverse transcriptase p51/p66 K103N mutant after 30 mins using alpha-[32P]dATP by liquid scintillation counting
# [16] = target: Human immunodeficiency virus type 1 reverse transcriptase (Human immunodeficiency virus 1, UniProt Q72547, L100I); experiment: Inhibition of HIV1 Reverse transcriptase p51/p66 L100I mutant after 30 mins using alpha-[32P]dATP by liquid scintillation counting
compound,measurement,setting,value
O=C(CCc1ccccc1)OC1C=CC(n2ccc(=O)n(Cc3cc(F)cc(F)c3)c2=O)C1 (centres undefined),IC50,[1],> 100 µM
O=C(Oc1ccc(Cn2ccc(=O)[nH]c2=O)cc1)c1ccccc1,IC50,[1],> 100 µM
N#Cc1cccc(C(=O)OC2C=CC(n3ccc(=O)[nH]c3=O)C2)c1 (centres undefined),IC50,[1],> 100 µM
Cc1cc(C)cc(C(=O)OC2C=CC(n3ccc(=O)[nH]c3=O)C2)c1 (centres undefined),IC50,[1],> 100 µM
O=C(Oc1cccc(Cn2ccc(=O)[nH]c2=O)c1)c1ccccc1,IC50,[1],> 100 µM
O=C(CCc1ccccc1)OC1C=CC(n2ccc(=O)n(Cc3ccccc3)c2=O)C1 (centres undefined),IC50,[1],> 100 µM
O=C(OC1C=CC(n2ccc(=O)n(Cc3ccccc3)c2=O)C1)c1ccccc1 (centres undefined),inhibition,[2],15%
same,inhibition,[3],< 10%
same,inhibition,[4],11%
same,inhibition,[5],12%
same,inhibition,[6],26%
same,inhibition,[7],83%
same,inhibition,[8],45%
same,IC50,[9],> 50 µM
Cc1cc(C)cc(C(=O)OC2C=CC(n3ccc(=O)n(C(=O)c4cc(C)cc(C)c4)c3=O)C2)c1 (centres undefined),IC50,[1],> 100 µM
O=C(Oc1ccccc1Cn1ccc(=O)n(Cc2ccccc2)c1=O)c1ccccc1,IC50,[1],> 100 µM
O=C(Oc1cccc(Cn2ccc(=O)n(Cc3ccccc3)c2=O)c1)c1ccccc1,IC50,[1],32.3 µM
Cc1ccnc2c1NC(=O)c1cccnc1N2C1CC1 [NEVIRAPINE],inhibition,[2],< 10%
same,inhibition,[3],< 10%
same,inhibition,[4],< 10%
same,inhibition,[5],< 10%
same,inhibition,[6],< 10%
same,inhibition,[7],48%
same,IC50,[9],> 2000 µM
O=C(Cc1ccccc1)OC1C=CC(n2ccc(=O)n(Cc3ccccc3)c2=O)C1 (centres undefined),IC50,[1],52 µM
O=C(Oc1ccc(Cn2ccc(=O)n(Cc3ccccc3)c2=O)cc1)c1ccccc1,IC50,[1],> 100 µM
O=C(Cc1ccccc1)OC1C=CC(n2ccc(=O)n(Cc3cc(F)cc(F)c3)c2=O)C1 (centres undefined),IC50,[1],> 100 µM
O=C(OC1C=CC(n2ccc(=O)[nH]c2=O)C1)c1cc(Cl)cc(Cl)c1 (centres undefined),IC50,[1],> 100 µM
Cc1cc(C)cc(C(=O)OC2C=CC(n3ccc(=O)n(Cc4ccccc4)c3=O)C2)c1 (centres undefined),inhibition,[2],23%
same,inhibition,[3],< 10%
same,inhibition,[4],24%
same,inhibition,[5],14%
same,inhibition,[6],37%
same,inhibition,[7],77%
same,inhibition,[8],52%
same,Ratio IC50,[10],2.11
same,Ratio IC50,[11],0.26
same,IC50,[12],> 20 µM
same,IC50,[9],> 100 µM
same,IC50,[13],> 20 µM
same,IC50,[14],> 20 µM
same,IC50,[15],17.3 µM
same,IC50,[16],2.1 µM
same,IC50,[1],8.2 µM
O=C(Oc1cccc(Cn2ccc(=O)[nH]c2=O)c1)c1cc(Cl)cc(Cl)c1,IC50,[1],42 µM
N#Cc1cccc(C(=O)OC2C=CC(n3ccc(=O)n(Cc4ccccc4)c3=O)C2)c1 (centres undefined),IC50,[1],> 100 µM
O=C(Oc1ccccc1Cn1ccc(=O)[nH]c1=O)c1ccccc1,IC50,[1],> 100 µM
O=C(OC1C=CC(n2ccc(=O)n(Cc3ccccc3)c2=O)C1)c1cc(Cl)cc(Cl)c1 (centres undefined),inhibition,[2],25%
same,inhibition,[3],< 10%
same,inhibition,[4],17%
same,inhibition,[5],20%
same,inhibition,[6],53%
same,inhibition,[7],89%
same,inhibition,[8],59%
same,Ratio IC50,[10],1.69
same,Ratio IC50,[11],0.25
same,IC50,[12],> 10 µM
same,IC50,[9],> 100 µM
same,IC50,[13],> 10 µM
same,IC50,[14],> 10 µM
same,IC50,[15],8.8 µM
same,IC50,[16],1.29 µM
same,IC50,[1],5.1 µM
O=C(OC1C=CC(n2ccc(=O)n(C(=O)c3cc(Cl)cc(Cl)c3)c2=O)C1)c1cc(Cl)cc(Cl)c1 (centres undefined),IC50,[1],> 100 µM
